Source: ChEMBL document CHEMBL3352174, “Identification of a New RXRα Antagonist Targeting the Coregulator-Binding Site” (ACS Med Chem Lett, 2014)
Calls of active or inactive are those of the source. No cut-off for these calls is given here.

Biological target: T1, Retinoic acid receptor RXR-gamma (Homo sapiens) (UniProt P48443)
T1 sequence (whole entry): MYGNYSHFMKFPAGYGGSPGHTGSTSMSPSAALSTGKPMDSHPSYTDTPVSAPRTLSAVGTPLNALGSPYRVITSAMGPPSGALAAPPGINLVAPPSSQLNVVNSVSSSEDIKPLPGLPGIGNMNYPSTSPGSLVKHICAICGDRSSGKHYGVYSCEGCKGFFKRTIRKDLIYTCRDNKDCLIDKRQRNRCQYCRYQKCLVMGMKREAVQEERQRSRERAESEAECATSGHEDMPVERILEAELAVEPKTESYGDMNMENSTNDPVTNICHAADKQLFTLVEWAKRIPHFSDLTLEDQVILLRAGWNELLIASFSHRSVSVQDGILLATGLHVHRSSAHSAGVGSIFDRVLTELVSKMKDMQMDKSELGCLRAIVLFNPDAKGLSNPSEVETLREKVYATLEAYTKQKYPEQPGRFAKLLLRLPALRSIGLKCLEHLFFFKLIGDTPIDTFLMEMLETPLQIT
Experiment: Antagonist activity against RXRgamma ligand binding domain (unknown origin) expressed in human HEK293T cells assessed as inhibition of 9-cis-RA-induced receptor transactivation at 2 and 10 uM after 18 hrs by luciferase reporter gene based mammalian one-hybrid assay
Assay type: cell-based
Conditions: HEK-293T

For Cc1cc(=O)oc2c(/C=N/NC(=O)CSc3nc4ccccc4s3)c(O)ccc12, which inhibition is on record?
Its inhibition is “Active”.
